The nature of the data set: Plasma concentration of omeprazole and hydroxyomeprazole by HPLC 3 hours after a single oral 20 mg omeprazole dose. It counts as in vivo, human. The settings on record: for Mean OH-OMP concentration ± SD: plasma, 3 h after single oral 20 mg omeprazole. An excerpt: The study protocol was approved by ethics committee of Tehran University of Medical Sciences (ethical no. 11208). Generally one hundred and eighty (60 women and 120 men) unrelated healthy Iranian volunteers with the mean age of between 20–55 years and average body weight of 45–89 kg took part in this study. All participants signed written informed consent of this project. The study was completed by contribution of faculties of pharmacy of Tehran, Yazd, Kermanshah and Kerman University of Medical Sciences. The participants were students or stuffs of pharmacy schools, with no history of any illness or medicine consumption. No smoking and consumption of medicine that would affect CYP2C19 activity was permitted for one week before and during the study.
After an overnight fast for at least 8 hours, volunteers took 20 mg omeprazole capsule (Abidi pharmaceuticals) with 250 milliliter tap water. Ten ml venous blood sample was collected from each subject 3 hours after administration of omeprazole and transferred into tubes containing 10 μl of 10% EDTA. Five ml of blood samples were centrifuged for 5 min at 4000 rpm and the plasma was separated and transferred to Eppendorf tube and stored at −80°C up to the day of analysis. The other 5 ml blood samples were stored directly in −80°C for genotyping analysis.
Omeprazole powder was purchased from TMAD (Iran). 5-hydroxyomeprazole was a kind donation by AstraZeneca (Sweden). The concentration of omeprazole and 5-hydroxyomeprazole was analyzed by HPLC method as described by Rezk et al. with a few modifications. Briefly 500 μl plasma was extracted by liquid-liquid extraction using 1500 μl ethyl acetate. After orbital mixing for 10 min and centrifuging at 4000 × g for 10 min, the upper organic layer was separated and transferred to glass tube and then evaporated to dryness under gentle stream of air. Finally the residue was dissolved in 250 μl mobile phase and 100 μl of this sample was injected to HPLC system. The mobile phase was a combination of dibasic sodium phosphate buffer (0.025 mol/lit, pH 6): acetonitrile: methanol (73: 18: 8 V/V/V). The HPLC apparatus consisted of a low pressure HPLC pump, UV detector (λ = 302 nm) all from Knauer (Berlin, Germany). The chromatographic separation was performed by using Chromolit™ Performance RP-18e 100 mm × 4.6 mm, 5 μm particle size. Flow rate was adjusted to 1 ml/min.

As for `COc1ccc2nc([S+]([O-])Cc3ncc(CO)c(OC)c3C)[nH]c2c1` (stereo not shown) [hydroxyomeprazole, 5-hydroxyomeprazole], where the note is “60 women vs 120 men, P > 0.05”, the “Hydroxyomeprazole plasma concentration, women compared with men” value is “not statistically different”. The “Mean OH-OMP concentration ± SD” value turned out to be 151.01 ± 26.38 ng/mL (genotype 1*1, Men (53)); 163.74 ± 32.25 ng/mL (genotype 1*1, Total (75)); 194.40 ± 60.84 ng/mL (genotype 1*1, Women (22)); 165.53 ± 23.55 ng/mL (genotype 1*2, Men (20)); 177.79 ± 38.39 ng/mL (genotype 1*2, Total (33)); 194.66 ± 52.56 ng/mL (genotype 1*2, Women (13)). For the same compound, the “Mean OH-OMP concentration ± SD” value is, setting by setting: (genotype 1*17, Men (37)) 178.07 ± 44.57 ng/mL; (genotype 1*17, Total (52)) 177.05 ± 37.53 ng/mL; (genotype 1*17, Women (15)) 174.51 ± 28.01 ng/mL; (genotype 2*2, Men (1)) 103.58 ng/mL; (genotype 2*2, Total (4)) 104.67 ± 10.55 ng/mL; (genotype 2*2, Women (3)) 105.03 ± 13.80 ng/mL. The “Mean OH-OMP concentration ± SD” value reads like this: (genotype 2*17, Men (2)) 169.82 ± 84.95 ng/mL; (genotype 2*17, Total (6)) 172.79 ± 63.58 ng/mL; (genotype 2*17, Women (4)) 178.72 ± 33.59 ng/mL; (genotype 17*17, Men (5)) 201.69 ± 32.08 ng/mL; (genotype 17*17, Total (10)) 203.31 ± 34.93 ng/mL; (genotype 17*17, Women (5)) 204.92 ± 41.35 ng/mL.

For the origin of these results see article PMC4266903, “Hydroxylation index of omeprazole in relation to CYP2C19 polymorphism and sex in a healthy Iranian population” (DARU Journal of Pharmaceutical Sciences, 2014).
